Laboratory results published in patent US20240400582A1, “FOUR-MEMBERED FUSED RING COMPOUND AND PREPARATION METHOD AND USE THEREOF” (JIANGSU HANSOH PHARMACEUTICAL GROUP CO., LTD., priority 2021, published 2024).

Key:
Ba/F3 BCR-ABL1-G250E = assay: Inhibition of proliferation of Ba/F3 BCR-ABL1-G250E cells (CellTiter-Glo); format: cell-based; settings: Mus musculus, BaF3, 72 h
Description: (§1) To evaluate the inhibitory activity of the compound of the present invention against proliferation of the Ba/F3 BCR-ABL1-T315I, Ba/F3 BCR-ABL1-E255K, Ba/F3 BCR-ABL1-E255V, and Ba/F3 BCR-ABL1-G250E mutation models of mouse primary B cells cultured in vitro.
(§2) CellTiter-Glo® Luminescent Cell Viability Assay was used to detect the inhibitory effect of drugs on tumor cell proliferation and growth. The logarithmic growth phase cells cultured overnight were directly taken, blown, mixed and counted, the cell density was adjusted according to different cell density requirements, and the cells were prepared into a cell suspension and plated on a 96-well plate. Drugs at different concentrations were added, 3 replicate wells were set for each concentration, and corresponding vehicle controls were eset. […] The maximum concentration of the compounds detected in other cells was 500 nM, with 3.16-fold gradient dilution, and a total of 9 concentrations (500-0.0503 nM). […] The culture plate and its contents were equilibrated to room temperature, the CellTiter-Glo® reagent was added, the contents were mixed on a shaker for 5 min to induce cell lysis, the culture plate was further incubated at room temperature in the dark for 20 min, and the luminescence was read with a microplate reader.

Ba/F3 BCR-ABL1-E255V = assay: Inhibition of proliferation of Ba/F3 BCR-ABL1-E255V cells (CellTiter-Glo); format: cell-based; settings: Mus musculus, BaF3, 72 h
Description: as §1, §2

Ku812 = assay: Inhibition of proliferation of Ku812 cells (CellTiter-Glo); format: cell-based; settings: Homo sapiens, 72 h
Description: (§3) To evaluate the inhibitory activity of the compounds of the present invention against proliferation of human erythroleukemia cells K562, human peripheral blood basophilic leukemia cells Ku812, and human chronic myelogenous leukemia cells KCL22-s and KCL22-r cultured in vitro.
(§4) CellTiter-Glo® Luminescent Cell Viability Assay was used to detect the inhibitory effect of drugs on tumor cell proliferation and growth. The logarithmic growth phase cells cultured overnight were directly taken, blown, mixed and counted, the cell density was adjusted according to different cell density requirements, and the cells were prepared into a cell suspension and plated on a 96-well plate. Drugs at different concentrations were added, three replicate wells were set for each concentration, and corresponding solvent controls were set. The maximum concentration of compound detected was 500 nM, with 3-fold gradient dilution, and a total of 9 concentrations (500-0.076 nM). […] The culture plate and its contents were equilibrated to room temperature, the CellTiter-Glo® reagent was added, the contents were mixed on a shaker for 3 min to induce cell lysis, the culture plate was further incubated at room temperature in the dark for 10 min, and the chemiluminescence signal value was determined by a microplate reader (BioTek SynergyH1).

K562 = assay: Inhibition of proliferation of K562 cells (CellTiter-Glo); format: cell-based; settings: Homo sapiens, 72 h
Description: as §3, §4

Ba/F3 BCR-ABL1-T315I = assay: Inhibition of proliferation of Ba/F3 BCR-ABL1-T315I cells (CellTiter-Glo); format: cell-based; settings: Mus musculus, BaF3, 72 h
Description: as §1, §2

KCL22-s = assay: Inhibition of proliferation of KCL22-s cells (CellTiter-Glo); format: cell-based; settings: Homo sapiens, 72 h, imatinib-sensitive strain
Description: as §3, §4

KCL22-r = assay: Inhibition of proliferation of KCL22-r cells (CellTiter-Glo); format: cell-based; settings: Homo sapiens, 72 h, imatinib-resistant strain
Description: as §3, §4

Ba/F3 BCR-ABL1-E255K = assay: Inhibition of proliferation of Ba/F3 BCR-ABL1-E255K cells (CellTiter-Glo); format: cell-based; settings: Mus musculus, BaF3, 72 h
Description: as §1, §2

[1] = test system: human chronic myeloid leukemia cell line KCL22-s xenograft tumor; assay: Anti-tumor efficacy in KCL22-s subcutaneous xenograft tumor model; format: in vivo, BALB/c nude mouse; settings: oral, dosing cycle 15 days
Description: To evaluate the efficacy of the test compound on the human chronic myeloid leukemia cell strain KCL22-s in the BALB/c nude mouse subcutaneous xenograft tumor model.
BALB/c nude mice, 8-10 weeks.
The resuscitated cells were placed in a cell culture flask (the cell type, date, name of the person for culture and so on were marked on the flask wall) and then placed in a CO2 incubator (the incubator temperature was 37° C. and the CO2 concentration was 5%) for incubation. • b, The cells were passaged. After passage, the cells continued to be cultured in the CO2 incubator. This process was repeated until the cell number met the in vivo drug efficacy requirements. • c, The cultured cells were collected and counted with a fully automatic cell counter.
• a, According to the tumor growth, the tumor was measured on the 15th day after inoculation and the tumor size was calculated.

ABL1 WT kinase = ABL1 WT kinase (Homo sapiens (Human), UniProt P00519); assay: In vitro enzymatic inhibitory activity against ABL1 WT kinase (capillary electrophoresis, EZ reader); format: biochemical; settings: maximum concentration 1 μM
Description: Capillary electrophoresis was used to detect the phosphorylation conversion rate of the substrate peptide to determine the IC50 value of the test compound for inhibiting the kinase (ABL1-WT). The maximum concentration of the compound tested in the test was 1000 nM, with 3-fold dilution, and a total of 12 concentrations (1000-0.0056 nM). First, an enzyme reaction system (the concentration of enzyme ABL1-WT was 1.3 nM, the concentration of substrate FLPeptide2 was 1.5 μM, and the reaction factor was 10 mM MgCl2) was prepared. After incubation at room temperature for 30 min, […] of 4×ATP solution was added to start the enzyme reaction. After reacting at room temperature for 90 min, the reaction was stopped by adding a stop buffer (containing 0.5 M EDTA). The sample was analyzed using an EZ reader (analysis conditions: pressure −1.5 PSI, upper voltage current −2250V, lower voltage current −500V, separation time 40 sec, and system delay 100.0 sec).
From the conversion rate read by EZ Reader, the remaining activity was calculated according to the following formula.
IC50 was calculated using XLfit, and IC50 was calculated by Formula 201 as the fitting formula.

Chain of ABL1 WT kinase (P00519 whole entry): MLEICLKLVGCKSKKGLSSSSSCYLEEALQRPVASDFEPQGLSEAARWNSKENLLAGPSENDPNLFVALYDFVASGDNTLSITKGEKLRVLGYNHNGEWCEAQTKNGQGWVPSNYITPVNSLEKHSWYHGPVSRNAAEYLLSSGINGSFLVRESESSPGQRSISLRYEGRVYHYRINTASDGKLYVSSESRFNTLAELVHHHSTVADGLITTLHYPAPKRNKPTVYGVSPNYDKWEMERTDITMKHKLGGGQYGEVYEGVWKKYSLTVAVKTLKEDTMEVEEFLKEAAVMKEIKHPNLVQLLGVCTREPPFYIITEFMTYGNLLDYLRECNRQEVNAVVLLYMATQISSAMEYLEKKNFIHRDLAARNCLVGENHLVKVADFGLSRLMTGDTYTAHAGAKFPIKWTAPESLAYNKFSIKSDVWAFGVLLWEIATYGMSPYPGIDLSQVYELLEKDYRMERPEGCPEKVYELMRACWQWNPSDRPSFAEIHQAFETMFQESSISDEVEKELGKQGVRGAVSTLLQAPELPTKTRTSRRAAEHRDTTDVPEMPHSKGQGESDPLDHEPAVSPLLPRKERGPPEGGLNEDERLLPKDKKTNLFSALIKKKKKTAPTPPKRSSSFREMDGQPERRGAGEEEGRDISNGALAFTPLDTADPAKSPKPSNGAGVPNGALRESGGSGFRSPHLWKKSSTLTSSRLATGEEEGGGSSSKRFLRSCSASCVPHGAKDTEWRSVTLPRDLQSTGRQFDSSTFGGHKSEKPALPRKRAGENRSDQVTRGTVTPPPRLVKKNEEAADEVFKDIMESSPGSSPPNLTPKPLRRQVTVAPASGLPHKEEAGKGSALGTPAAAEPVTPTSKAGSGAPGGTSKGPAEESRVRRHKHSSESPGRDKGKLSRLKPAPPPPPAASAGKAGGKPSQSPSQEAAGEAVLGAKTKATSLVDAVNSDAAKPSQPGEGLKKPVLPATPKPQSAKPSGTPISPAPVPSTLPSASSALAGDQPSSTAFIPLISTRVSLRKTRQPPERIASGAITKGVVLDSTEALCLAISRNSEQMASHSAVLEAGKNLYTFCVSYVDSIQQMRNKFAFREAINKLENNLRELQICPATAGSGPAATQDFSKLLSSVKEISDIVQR

## C[C@@H]1COC2NC=NC=C2c2cc(C(=O)Nc3ccc(OC(F)(F)Cl)cc3)cc3nc(C(F)F)n1c23.Cc1ccc(S(=O)(=O)O)cc1 (stereo partly drawn) [Example 1, (3R)-N-(4-(chlorodifluoromethoxy)phenyl)-2-(difluoromethyl)-3-methyl-3,4,5a,6-tetrahydro-5-oxa-1,2a,6,8-tetraazabenzo[4,5]cyclooctyl[1,2,3-cd]indene-11-carboxamide p-toluenesulfonate Salt]
Ba/F3 BCR-ABL1-G250E
  IC50: 5.36 nM
Ba/F3 BCR-ABL1-E255V
  IC50: 7.15 nM
Ku812
  IC50: 4.13 nM
K562
  IC50: 13 nM
Ba/F3 BCR-ABL1-T315I
  IC50: 46.8 nM
KCL22-s
  IC50: 2.99 nM
KCL22-r
  IC50: 14.6 nM
Ba/F3 BCR-ABL1-E255K
  IC50: 26.3 nM
[1]; 1.5 mg/kg bid
  T/C: 7.05%
  TGI: 98.20%
  Tumor volume: 143 ± 35 mm^3
[1]; 3 mg/kg bid
  T/C: 0.69%
  TGI: 187.08%
  Tumor volume: 14 ± 5 mm^3
[1]; 3 mg/kg qd
  T/C: 3.98%
  TGI: 127.26%
  Tumor volume: 81 ± 19 mm^3
[1]; 7.5 mg/kg bid
  T/C: 0.52%
  TGI: 190.62%
  Tumor volume: 11 ± 7 mm^3
ABL1 WT kinase
  IC50: 0.43 nM

## Cc1ccc(NC(=O)c2ccc(CN3CCN(C)CC3)cc2)cc1Nc1nccc(-c2cccnc2)n1 [Imatinib, reference compound]
[1]; 75 mg/kg qd
  T/C: 46.92%
  TGI: 56.03%
